Assay results from US12427212B2, “Nectin-4 binding miniproteins, conjugates and uses thereof” (Aktis Oncology, Inc., priority 2023, dated 2025).
Where two headings read alike, the source gives them in different places. Bridges are numbered along the chain shown (N, C = ends). Primed or numbered codes have the meaning given here. [ ]: non-standard residue; d: D form. The star is where a group is joined. DOTA = O=C(O)CN1CCN(CC(=O)O)CCN(CC(=O)*)CCN(CC(=O)O)CC1; Biotin = O=C1N[C@H]2[C@H](CS[C@H]2CCCCC(=O)*)N1; Lys(Me3) = C[N+](C)(C)CCCC[C@H](N)C(=O)O; Arg(Me2s) = CN=C(NC)NCCC[C@H](N)C(=O)O; Cit = NC(=O)NCCC[C@H](N)C(=O)O; PEG4 = NCCOCCOCCOCCOCCC(=O)O; PEG4′ = not defined here

How the values were obtained:
mouse Nectin-4 = target: T1, mouse Nectin-4 (Mus musculus, UniProt Q8R007); assay: Surface plasmon resonance (Biacore), 1:1 binding model, mouse Nectin-4; conditions: SPR, 25° C.
T1 sequence (Q8R007 31-508): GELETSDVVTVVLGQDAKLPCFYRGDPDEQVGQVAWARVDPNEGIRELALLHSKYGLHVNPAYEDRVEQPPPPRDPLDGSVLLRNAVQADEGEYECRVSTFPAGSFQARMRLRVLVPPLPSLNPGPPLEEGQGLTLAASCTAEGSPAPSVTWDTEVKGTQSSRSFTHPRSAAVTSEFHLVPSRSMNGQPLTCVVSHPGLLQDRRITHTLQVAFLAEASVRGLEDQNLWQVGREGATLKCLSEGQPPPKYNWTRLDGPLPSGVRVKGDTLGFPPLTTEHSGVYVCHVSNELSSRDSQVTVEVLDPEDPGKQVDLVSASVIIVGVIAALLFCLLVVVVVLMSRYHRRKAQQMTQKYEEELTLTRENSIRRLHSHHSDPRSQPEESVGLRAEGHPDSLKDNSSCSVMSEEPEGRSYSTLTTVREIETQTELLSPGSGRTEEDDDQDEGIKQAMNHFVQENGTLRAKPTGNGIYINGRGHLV
Experimental: (§1) Peptide binding affinity to the target protein was measured by SPR using an SPR machine, such as a Biacore T200 instrument. The target protein was covalently coupled to a Biacore chip surface using free amine-coupling chemistry (NHS/EDC) and all uncoupled sites were blocked with ethanolamine. Free peptides were flowed over the target protein surface in increasing concentrations to measure association (Ka, 1/Ms^−1)) and dissociation (Kd, s^−1) to calculate the dissociation equilibrium constant (KD) using an appropriate binding model (see, e.g., Nikolas Stroth, J Biol Methods. 2016; 3 (1)).
(§2) In FIGS. 1A, 1B, 2A, and 2B, lines on graphs are labeled from top to bottom, beginning with letter “a.” and the corresponding concentration is noted to the right of the figure.
(§3) (i.e., a conjugate comprising a Nectin-4 peptide of SEQ ID NO: 5 and arranged having an N-terminus comprising ^138La-DOTA-PEG4 and a C-terminus comprising OH). […] In both FIGS. 3A and 3B, lines on graphs were labeled from top to bottom, beginning with letter a, and the corresponding concentration was noted to the right of the figure.

Nectin-4 [1] = target: T2, Nectin-4 (Homo sapiens, UniProt Q96NY8); assay: Surface plasmon resonance (Biacore), 1:1 binding model, human Nectin-4; conditions: SPR, 25° C.
T2 sequence (Q96NY8 32-510): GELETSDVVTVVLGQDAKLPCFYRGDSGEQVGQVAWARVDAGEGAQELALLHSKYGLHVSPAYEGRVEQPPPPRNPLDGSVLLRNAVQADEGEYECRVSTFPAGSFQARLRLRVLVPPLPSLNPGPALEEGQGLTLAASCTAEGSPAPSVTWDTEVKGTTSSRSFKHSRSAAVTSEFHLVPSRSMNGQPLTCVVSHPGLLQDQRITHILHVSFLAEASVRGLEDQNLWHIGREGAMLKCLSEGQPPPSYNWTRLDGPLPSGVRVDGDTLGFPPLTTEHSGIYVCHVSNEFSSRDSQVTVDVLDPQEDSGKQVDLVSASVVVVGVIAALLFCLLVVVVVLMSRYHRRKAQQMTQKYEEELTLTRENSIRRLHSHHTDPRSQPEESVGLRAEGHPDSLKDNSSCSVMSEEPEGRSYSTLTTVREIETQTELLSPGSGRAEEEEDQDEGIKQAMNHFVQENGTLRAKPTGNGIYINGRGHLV
Experimental: as §1, §2, §3

[2] = tested on: HT-1376 urothelial cancer cells; assay: In vitro cell cytotoxicity assay of 225Ac-radioconjugates (CellTiter-Glo); type: cell-based, human; conditions: compound radiolabeled with 225Ac, 24 h treatment, 4-5 day regrowth, HT-1376 cells
Experimental: Cytotoxicity to ^225Ac-radioconjugates was assessed in HT-1376 urothelial cancer cells. Cells were seeded in 96-well plates at densities of 250 to 1000 cells per well two days prior to treatment. On the day of treatment ^225Ac-radioconjugates were diluted in culture medium to concentrations ranging from 0,0001 to 100 μCi/mL and treatment solutions were incubated with cells for 24 h. At the end of the treatment period, the treatment solution was removed, and fresh culture medium was replenished for the regrowth period of the assay that lasted 4-5 day's. At the end of the regrowth period the culture medium was removed and viability was assessed by CellTiter-Glo (Promega, Waltham MA) luminescent assay and the plates were read on a Perkin Elmer Enspire multimode plate reader. Data were normalized to treatment controls and plotted as non-linear sigmoidal dose response curves to determine the effective concentration for 50% reduction in cell viability.

Nectin-4 [3] = target: T2, Nectin-4; assay: DELFIA competitive binding assay (Ki) against Eu-labeled C307 on HT-1376 cells
Experimental: A competition binding assay was utilized to determine the Ki for miniproteins bound to Nectin-4 expressed on the surface of cancer cells. […] Miniprotein incubations occurred for 90 min to reach binding equilibrium. […] After miniprotein incubations, the wells were washed to remove unbound ligand and treated according to manufacturer instructions for a DELFIA® (dissociation-enhanced lanthanide fluorescent immunoassay, Revvity Health Sciences). In brief, washed wells were incubated with 15 μL of 2 M HCl for 2 h at 37° C., after which 17 μL of 2 M NaOH and 30 μL of DELFIA® enhancement solution were added to each well and incubated for an additional 30 min. The remaining Eu reacted with the DELFIA® enhancer solution to generate fluorescence measured on the Envision instrument. Relative fluorescence units (RFUs) were measured as a function of test article concentration in order to calculate an IC50.
A whole cell binding assay was used to estimate the equilibrium binding affinity (KD) or binding inhibition constant (Ki) of miniprotein ligands to cells expressing a target of interest. Cells were dispensed into a 384-well plate and incubated at 37° C., in 5% CO2 overnight. The next day cells were gently washed once in assay buffer prior to addition of europium chelated ligand. […] For Ki determination, a single concentration (KD equivalent concentration) of europium-chelate miniprotein was added to each well followed immediately by the addition of unconjugated competing ligand over 12 different concentrations ranging from 100 times below and above expected Ki values as before. The plate was incubated for 1.5 h at room temperature to reach binding equilibrium. Cells were then washed three times at room temperature with 1×PBS followed by the addition of 2 M HCl and incubated for two h at 37° C. Following this step, 2 M NaOH and fluorescent inducer solution were added to each well and incubated for 30 minutes at room temperature according to the manufacturer's protocol (Perkin-ELMER DELFIA assay). Plates were read on an Envision plate reader and a curve-fitting model was applied to estimate KD and Ki values using GraphPad Prism software.
Engineered Nectin-4 miniproteins with further modified lysine residues (C298-C304; as described in Example 4B) were evaluated for their ability to bind to Nectin-4.

[4] = tested on: Opossum kidney proximal tubule cells; assay: Proximal tubule epithelial cell uptake assay; type: cell-based; conditions: Table 10A; mean percent uptake in opossum kidney cells, 1 h at 37° C., relative to control miniprotein C306
Summary of the method: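 Opossum kidney proximal tubule cells on transwells, shaken 24 h, then treated in duplicate with biotinylated miniproteins pre-complexed with streptavidin-AF647 for 1 h at 37° C with shaking. After washing and RIPA lysis, lysate fluorescence read; uptake expressed as % of control miniprotein C306, tested at 20 μM.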

[5] = Biodistribution of radiolabeled miniprotein conjugates by SPECT/CT, HT-1376-OE xenograft; conditions: female, mouse, in vivo, iv, Kidneys; for tissue uptake at 4 h: 4 h (% ID/g) Average; for tissue uptake at 22 h: 22 h (% ID/g) Average
Experimental: 6-8 week old female mice were engrafted through subcutaneous injection with cultured 3.0×10^6 HT-1376-OE cells (1:1—Cells:Matrigel). HT-1376-OE is a model cell line that highly expresses Nectin-4. Fourteen (14) days later, the mice were each dosed with a radiolabeled miniprotein, for example at a dose of ˜350 μCi/3.5 μg miniprotein. SPECT and/or CT imaging of the mice was done at timepoints between 15 min to 24 h after the administration of the injected dose, such as 4 h and 22 h (static scanning). Initial SPECT and/or CT rapid dynamic scanning was done at time points between 15 min and 75 min after the administration of the injected dose. For each miniprotein tested, a group of three mice were used, as summarized below in TABLE 16A.

[6] = In vitro metabolic stability in serum/plasma (percent parent remaining, LC-MS); type: in vitro ADME; conditions: mouse
Experimental: Exemplary miniproteins were spiked into biological matrices at initial concentration between 1-2 μM. Tested matrices were varied by species (mouse, rat, human) and type (plasma, serum, and kidney brush border membrane (kBBM) preparations tested each from 0.625-100 μg/mL protein content). Tested conditions were incubated with miniproteins at 37° C. for 4 h. At collection points of 0, 15, 30, 60, 120, 240 minutes, 50 μL of each condition were quenched by organic solvent (methanol or acetonitrile) or the addition of 4% phosphoric acid solution followed by solid-phase extraction. Fractions of each quenched timepoint were subsequently assayed for parent miniproteins concentration by high resolution LC-MS. Percent-parent-remaining-time plots were constructed from the ratio of each given time collection to the time-zero parent miniprotein. Percent-parent-remaining in mouse serum and plasma for exemplary miniproteins are recorded in TABLE 11.

[7] = In vivo biodistribution of 111In-labeled miniproteins by SPECT/CT, HT-1376 xenograft; parameters: species or system mouse; conditions: female, athymic nude, mouse, in vivo
Summary of the method: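 Mice bearing HT-1376 (Nectin-4-expressing human) xenografts imaged by SPECT/CT after 111In-labeled miniprotein dosing. SPECT reported as activity; per-subject maximum intensity projections scaled in % ID/g at each time point.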

With “Ac-CEYDEEFFAGLKRLRGGDICYYIKKKFDKVPDLCIEEILDKLGC-OH (disulfide 1-34, 20-44) [Compound C9]” the Kd (mouse Nectin-4) was 7.82 nM, the “kd for mouse Nectin-4” value (mouse Nectin-4) was 0.02134 s⁻¹ and the Kd (Nectin-4 [1]) was 7.5 nM. The “kd for human Nectin-4” value (Nectin-4 [1]) was 0.02271 s⁻¹.

In the case of “C214 ({DOTA-PEG4′}-CEYDEEFFTALKRLRGGDICYYIKKKFDYLPKLCIEEILDNLGC-NH2; disulfide 1-34, 20-44) [Compound C214]”, the “EC50 (microcurie/milliliter) for 225Ac radioconjugates” value [2] is reported as 0.014 microcurie/milliliter.

With “{Biotin-PEG4}-CEYDEQFFTALARLRGADICEYIQARFQYLPGLCIEEILDNLGCS-OH (disulfide 1-34, 20-44) [Compound C280]” the Ki (Nectin-4 [3]) was 0.54 nM and the “% Uptake of C306 (Control)” value [4] was 1.56%.

For “{Biotin-PEG4}-CEYDEQFFTALARLRGGDICEYIQA[Arg(Me2s)]FQYLPGLCIEEILDNLGCS-OH (disulfide 1-34, 20-44) [Compound C267]”, the Ki (Nectin-4 [3]) was 0.76 nM and the “% Uptake of C306 (Control)” value [4] was 0.800%.

“{DOTA-PEG4}-CDYDEQFFTALA[Cit]LRGGDICEYIQA[Lys(Me3)]FQYLPGLCIEEILDNLGCS-OH (disulfide 1-34, 20-44 (inferred)) [Compound C260]” showed a tissue uptake at 4 h [5] of 11.6 %ID/g, a tissue uptake at 22 h [5] of 6.92 %ID/g and a half-life [6] of 11.2 h. The half-life ([6]; plasma) was > 12 h, the tissue uptake at 4 h [7] was 12.8 %ID/g and the tissue uptake at 24 h [7] was 7.36 %ID/g.

In the case of “{DOTA-PEG4}-CEYDEEFFAGLKRLRGGDICYYIKKKFDKVPDLCIEEILDKLGC-OH (disulfide 1-34, 20-44) [Compound C12]”, the “kd for mouse Nectin-4” value (mouse Nectin-4) is reported as 0.02625 s⁻¹ and the “kd for human Nectin-4” value (Nectin-4 [1]) is reported as 0.01697 s⁻¹.

In the case of “{DOTA-PEG4}-CEYDEEFFAGLKRLRGGDICYYIKKKFDKVPDLCIEEILDKLGC-OH (disulfide 1-34, 20-44) [Compound C91]”, the “kd for mouse Nectin-4” value (mouse Nectin-4) is reported as 0.02817 s⁻¹ and the “kd for human Nectin-4” value (Nectin-4 [1]) is reported as 0.02966 s⁻¹.

In the case of “{DOTA-PEG4}-CEYDEEFFTALARLRGGDICQYIQAKFQYLPGQCIEEILDNLGCS-OH (disulfide 1-34, 20-44) [Compound C244]”, the tissue uptake at 4 h [5] is reported as 29.5 %ID/g, the tissue uptake at 22 h [5] is reported as 17.8 %ID/g and the half-life [6] is reported as > 12 h. For the same substance, the half-life ([6]; plasma) was > 12 h, the tissue uptake at 4 h [7] was 27.7 %ID/g and the tissue uptake at 24 h [7] was 15.9 %ID/g.

In the case of “{DOTA-PEG4}-CEYDEQFFTALKALRGGDICYYIQASFNYLPDLCIEEILDNLGCS-OH (disulfide 1-34, 20-44 (inferred)) [Compound C113]”, the “EC50 (microcurie/milliliter) for 225Ac radioconjugates” value [2] is reported as 0.042 microcurie/milliliter, the tissue uptake at 4 h ([7]; 111In-labeled miniprotein, SPECT/CT, kidneys, 4 h post-dosing, n=3 mice, read-out: Biodistribution, Kidneys, 4 h (% ID/g) Average) is reported as 87.9 %ID/g and the tissue uptake at 24 h ([7]; 111In-labeled miniprotein, SPECT/CT, kidneys, 24 h post-dosing, n=3 mice, read-out: Biodistribution, Kidneys, 24 h (% ID/g) Average) is reported as 42.7 %ID/g.
